Measurements: patent publication US12559750B2, “Methods and compositions for treatment of polycystic kidney disease” (Regulus Therapeutics Inc., priority 2021, dated 2026)

Experiments:
AMPA-R = experiment: [3H]AMPA radioligand binding assay on rat brain synaptic membranes; settings: for % Inhibition @ Concentration 100 uM: Table 8 (3′-terminal nucleobase/sugar variants); for % Inhibition @ Concentration 0.1 uM: Table 8, 0.1 uM; for % Inhibition @ Concentration 1 uM: Table 8, 1 uM; for % Inhibition @ Concentration 10 uM: Table 8, 10 uM;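 for all read-outs here: competition binding in which test compounds at rising concentrations displace [3H]AMPA from AMPA-R on rat brain synaptic membranes, with reduced bound radioligand as read-out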
[1] = tested on: KspCre/Pkd1F/RC (Pkd1-F/RC) mice; experiment: Efficacy in Pkd1-F/RC mouse model of ADPKD; format: in vivo; settings: 20 mg/kg SC on days 8, 10, 12, 15 of age; for Mean BW/KW Ratio / Mean Serum BUN / Mean Serum Creatine: sacrificed at 18 days
Description: Mice were sacrificed at 18 days of age, and kidney weight, body weight, cyst index, serum creatinine level, and blood urea nitrogen (BUN) level were measured. BUN level is a marker of kidney function. A higher BUN level correlates with poorer kidney function, thus a reduction in BUN level is an indicator of reduced kidney injury and damage and improved function. Statistical significance was calculated by one-way ANOVA with Dunnett's multiple correction.

mice = experiment: High-dose subcutaneous mouse toxicity studies, CNS-related findings; settings: for CNS toxicity in high-dose mouse toxicity studies: single 2000 mg/kg and/or escalating doses 100, 450, 2000 mg/kg, in words
Description: Each compound was tested in a single dose at 2000 mg/kg, and at escalating doses (100, 450, and 2000 mg/kg).

miR-17 [2] = experiment: microRNA polysome shift assay (miPSA) in kidney of wild type mice; format: in vivo, mouse; set-up: scale not given here; settings: seven days later
Description: In vivo potency was evaluated using the microRNA polysome shift assay (miPSA). This assay was used to determine the extent to which compounds directly engage the miR-17 target in the kidney in normal and PKD mice. The miPSA relies on the principle that active miRNAs bind to their mRNA targets in translationally active high molecular weight (HMW) polysomes, whereas the inhibited miRNAs reside in the low MW (LMW) polysomes. Treatment with anti-miR results in a shift of the microRNA from HMW polysomes to LMW polysomes. Thus, the miPSA provides a direct measurement of microRNA target engagement by a complementary anti-miR (Androsavich et al., Nucleic Acids Research, 2015, 44: e13).
Wild type mice were administered a single dose of 0.3 mg/kg, 3 mg/kg, or 30 mg/kg. Kidney tissue was collected seven days later and subjected to the miPSA. The mean displacement score for each treatment is shown in Table 15 (PBS, n=17; RGLS4326 30 mg/kg, n=10; all other treatments, n=4-5). The tested oligonucleotides displaced miR-17 from translationally active polysome (as measured by miPSA) in normal mouse kidneys.

AMPA-R (GluA1/GluA4) = target: T1, AMPA-R (GluA1/GluA4) (Homo sapiens, UniProt P42261+P48058); experiment: Manual whole-cell patch clamp, ChanTest GluA1/GluA4 EZCells; format: cell-based
T1 construct: host or cells: ChanTest GluA1/GluA4 EZCells
Description: To evaluate functional antagonism of anti-miR-17 oligonucleotides towards the AMPA-R, certain oligonucleotides were tested using the manual whole-cell patch clamp technique, which records membrane currents as a measure of AMPA-R activity.
Manual whole-cell patch clamp studies were performed by Metrion Biosciences (Cambridge, UK). Whole-cell voltage clamp experiments were performed at room temperature (18-21° C.) using an EPC10 patch clamp amplifier using Patchmaster software (HEKA Elektronik). Glass patch pipettes were fabricated from borosilicate glass capillaries (Harvard Apparatus) to resistances between 1.4 and 2.5 MΩ. Membrane currents were recorded using the whole-cell patch clamp technique. ChanTest® GluA1/GluA4 EZCells were clamped at a holding potential of −80 mV and membrane currents elicited by 10 μM(S)-AMPA delivered using a VC38 perfusion system (ALA Scientific Instruments). The […] current amplitude values were measured with each application of 10 μM(S)-AMPA. The fractional change of current amplitude produced by each concentration of compound was calculated relative to the control current (pre-compound) and expressed as percentage change (% inhibition) for each cell. RGLS4326 was tested in a separate study from all other compounds in Table 6.

miR-17 [3] = experiment: miR-17 luciferase sensor assay in HeLa cells; format: cell-based; settings: for EC50: HeLa cells, 18- to 24-hour transfection
Description: The in vitro potency of certain compounds was evaluated using a miR-17 luciferase sensor assay which uses a luciferase reporter vector for miR-17, with two fully complementary miR-17 binding sites in tandem in the 3′-UTR of the luciferase gene. HeLa cells were co-transfected with the luciferase reporter vector and an exogenous miR-17-expression vector that acted to repress the luciferase signal.

miR-17 [4] = experiment: miR-17 PD-Sig in human kidney cell lines; format: cell-based
miR-17 [5] = experiment: miR-17 PD-Sig in mouse kidney cell lines; format: cell-based
Description: The activity of certain compounds was evaluated using a mouse miR-17 Pharmacodynamic-Signature (miR-17 PD-Sig), which consists of the expression of 18 unique miR-17 target genes normalized by six reference housekeeping genes, to provide an unbiased and comprehensive assessment of miR-17 activity. The mouse miR-17 PD-Sig score was the calculated average of the 18 genes' individual log 2 fold changes (normalized by six housekeeping genes) compared to mock transfection (Lee et al., Nat. Commun., 2019, 10, 4148).
The PD-Sig for RGLS4326 in mIMCD3 cells (77.2, indicated by “*”) was not generated in this experiment; the value in Table 14 is that reported by Lee et al., Nat. Commun., 2019, 10, 4148. Blank cells in the table indicate that a compound was not tested in a particular cell line.

T1 sequence (P42261 19-906): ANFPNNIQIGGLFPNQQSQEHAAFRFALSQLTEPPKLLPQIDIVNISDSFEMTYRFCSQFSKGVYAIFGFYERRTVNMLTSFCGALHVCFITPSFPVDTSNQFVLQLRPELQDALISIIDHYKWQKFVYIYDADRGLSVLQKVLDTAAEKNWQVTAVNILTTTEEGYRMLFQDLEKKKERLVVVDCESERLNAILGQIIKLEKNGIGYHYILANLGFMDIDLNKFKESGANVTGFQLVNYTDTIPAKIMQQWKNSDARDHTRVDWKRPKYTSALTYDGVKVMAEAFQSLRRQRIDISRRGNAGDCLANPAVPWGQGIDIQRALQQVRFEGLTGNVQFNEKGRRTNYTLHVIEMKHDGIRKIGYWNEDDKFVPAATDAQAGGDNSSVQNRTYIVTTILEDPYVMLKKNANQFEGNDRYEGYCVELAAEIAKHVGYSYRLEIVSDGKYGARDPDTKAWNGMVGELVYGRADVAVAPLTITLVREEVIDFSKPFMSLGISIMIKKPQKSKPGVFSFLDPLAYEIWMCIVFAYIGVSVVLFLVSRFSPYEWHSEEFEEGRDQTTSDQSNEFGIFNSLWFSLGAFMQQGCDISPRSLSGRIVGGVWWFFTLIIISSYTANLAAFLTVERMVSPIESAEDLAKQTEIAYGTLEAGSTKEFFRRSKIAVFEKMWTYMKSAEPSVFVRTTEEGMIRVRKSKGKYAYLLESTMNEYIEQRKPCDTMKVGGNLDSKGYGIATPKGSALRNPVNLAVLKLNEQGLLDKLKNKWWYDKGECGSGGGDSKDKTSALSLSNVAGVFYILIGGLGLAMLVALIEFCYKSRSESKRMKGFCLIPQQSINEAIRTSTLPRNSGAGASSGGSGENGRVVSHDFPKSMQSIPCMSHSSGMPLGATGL
T1 sequence (P48058 21-902): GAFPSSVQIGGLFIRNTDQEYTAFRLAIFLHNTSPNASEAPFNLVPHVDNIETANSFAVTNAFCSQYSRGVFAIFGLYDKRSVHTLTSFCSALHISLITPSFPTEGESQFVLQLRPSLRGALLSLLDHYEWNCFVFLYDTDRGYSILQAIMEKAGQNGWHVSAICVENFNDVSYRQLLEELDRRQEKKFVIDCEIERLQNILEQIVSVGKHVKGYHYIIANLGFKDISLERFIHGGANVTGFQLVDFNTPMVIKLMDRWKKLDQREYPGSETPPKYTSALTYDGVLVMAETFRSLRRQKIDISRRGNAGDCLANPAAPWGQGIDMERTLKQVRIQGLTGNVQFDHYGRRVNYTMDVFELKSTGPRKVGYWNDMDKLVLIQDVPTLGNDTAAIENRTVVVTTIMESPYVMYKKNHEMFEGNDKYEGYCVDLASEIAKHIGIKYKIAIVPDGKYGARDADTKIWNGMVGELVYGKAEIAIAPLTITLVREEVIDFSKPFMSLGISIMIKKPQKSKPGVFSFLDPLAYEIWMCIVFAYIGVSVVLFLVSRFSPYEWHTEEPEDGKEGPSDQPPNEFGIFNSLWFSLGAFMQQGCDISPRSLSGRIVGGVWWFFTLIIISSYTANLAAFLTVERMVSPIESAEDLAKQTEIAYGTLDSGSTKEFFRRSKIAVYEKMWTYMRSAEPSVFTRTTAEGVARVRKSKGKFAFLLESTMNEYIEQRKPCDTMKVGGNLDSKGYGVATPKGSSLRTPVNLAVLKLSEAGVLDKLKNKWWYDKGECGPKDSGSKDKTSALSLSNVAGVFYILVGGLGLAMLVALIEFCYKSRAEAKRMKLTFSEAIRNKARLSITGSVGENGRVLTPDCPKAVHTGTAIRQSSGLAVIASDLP

Sequence: ASGSCMAFCFUFUMUSAS [RG-NG-1015]
- IC50 (AMPA-R; Experiment #2): > 100000 nM
- % Inhibition @ 0.1 uM (AMPA-R; Experiment #2, 0.1 uM): 2.3%
- % Inhibition @ 1 uM (AMPA-R; Experiment #2, 1 uM): 11%
- % Inhibition @ 10 uM (AMPA-R; Experiment #2, 10 uM): 6.5%
- % Inhibition @ 100 uM (AMPA-R; Experiment #2, 100 uM): 19.9%
- IC50 (AMPA-R; Table 8): ≥ 100000 nM
- % Inhibition @ Concentration 100 uM (AMPA-R): 5.6%
- % Inhibition @ Concentration 0.1 uM (AMPA-R): −0.8%
- % Inhibition @ Concentration 1 uM (AMPA-R): −10.3%
- % Inhibition @ Concentration 10 uM (AMPA-R): −7%
- BW/KW Ratio, Mean Difference vs. PBS [1]: −48.79
- Serum BUN, Mean Difference vs. PBS [1]: −20.21
- Serum Creatine, Mean Difference vs. PBS [1]: −0.034
- Mean BW/KW Ratio [1]: 16.83
- Mean Serum BUN [1]: 22.26
- Mean Serum Creatine [1]: 0.1279
- CNS-related findings noted (mice; SC 2000 mg/kg, Single): No
- CNS-related findings noted (mice; SC 100, 450, 2000 mg/kg/dose, QDx4): No
- CNS toxicity in high-dose mouse toxicity studies (mice): no CNS-toxicity were observed
- miPSA Displacement Score, Mean (miR-17 [2]; single dose 3 mg/kg): 2.562
- miPSA Displacement Score, Mean (miR-17 [2]; single dose 30 mg/kg): 2.718
- miPSA Displacement Score, Mean (miR-17 [2]; single dose 0.3 m/kg): 2.238
- % Inhibition on membrane currents evoked with 10 uM (s)-AMPA (Mean ± SD) (AMPA-R (GluA1/GluA4); 0.3 uM compound): 16.0 ± 5.0%
- % Inhibition on membrane currents evoked with 10 uM (s)-AMPA (Mean ± SD) (AMPA-R (GluA1/GluA4); 3 uM compound): 39.5 ± 5.4%
- functional antagonism towards AMPA-R relative to RGLS4326 (AMPA-R (GluA1/GluA4); in words): reduced functional antagonism towards AMPA-R
- Log2FC (37.5 nM) (miR-17 [3]): 2.51
- EC50 (miR-17 [3]): 22.4 nM
- EC50 (miR-17 [4]; HK-2, human, Normal): 55.6 nM
- EC50 (miR-17 [4]; WT9-7, human, PKD): 21.2 nM
- EC50 (miR-17 [5]; D52B5, mouse, PKD): 82.4 nM
- EC50 (miR-17 [5]; mIMCD3, mouse, Normal): 168 nM

Sequence: ASGSCMAFCFUFUMUSGS [RGLS4326, reference compound]
- IC50 (AMPA-R; Experiment #1): 700 nM
- % Inhibition @ 0.1 uM (AMPA-R; Experiment #1, 0.1 uM): 17.6%
- % Inhibition @ 1 uM (AMPA-R; Experiment #1, 1 uM): 55.5%
- % Inhibition @ 10 uM (AMPA-R; Experiment #1, 10 uM): 93%
- % Inhibition @ 100 uM (AMPA-R; Experiment #1, 100 uM): 104.1%
- IC50 (AMPA-R; Experiment #2): 270 nM
- % Inhibition @ 0.1 uM (AMPA-R; Experiment #2, 0.1 uM): 31.5%
- % Inhibition @ 1 uM (AMPA-R; Experiment #2, 1 uM): 73.1%
- % Inhibition @ 10 uM (AMPA-R; Experiment #2, 10 uM): 93.6%
- % Inhibition @ 100 uM (AMPA-R; Experiment #2, 100 uM): 96.8%
- IC50 (AMPA-R; Experiment #3): 780 nM
- % Inhibition @ 0.1 uM (AMPA-R; Experiment #3, 0.1 uM): 14.6%
- % Inhibition @ 1 uM (AMPA-R; Experiment #3, 1 uM): 55.8%
- % Inhibition @ 10 uM (AMPA-R; Experiment #3, 10 uM): 89%
- % Inhibition @ 100 uM (AMPA-R; Experiment #3, 100 uM): 97.2%
- IC50 (AMPA-R; Table 8): 1610 nM
- % Inhibition @ Concentration 100 uM (AMPA-R): 99.7%
- % Inhibition @ Concentration 0.1 uM (AMPA-R): −0.1%
- % Inhibition @ Concentration 1 uM (AMPA-R): 40.8%
- % Inhibition @ Concentration 10 uM (AMPA-R): 83.5%
- BW/KW Ratio, Mean Difference vs. PBS [1]: −48.8
- Serum BUN, Mean Difference vs. PBS [1]: −20.06
- Serum Creatine, Mean Difference vs. PBS [1]: −0.03463
- Mean BW/KW Ratio [1]: 16.81
- Mean Serum BUN [1]: 22.41
- Mean Serum Creatine [1]: 0.1273
- CNS toxicity in high-dose mouse toxicity studies (mice): ataxia, lethargy, and in the case of RGLS4326, unconsciousness at the highest dose
- miPSA Displacement Score, Mean (miR-17 [2]; single dose 3 mg/kg): 2.247
- miPSA Displacement Score, Mean (miR-17 [2]; single dose 30 mg/kg): 2.362
- miPSA Displacement Score, Mean (miR-17 [2]; single dose 0.3 m/kg): 1.846
- % Inhibition on membrane currents evoked with 10 uM (s)-AMPA (Mean ± SD) (AMPA-R (GluA1/GluA4); 0.3 uM compound): 46.9 ± 9.8%
- % Inhibition on membrane currents evoked with 10 uM (s)-AMPA (Mean ± SD) (AMPA-R (GluA1/GluA4); 3 uM compound): 87.4 ± 7.9%
- Log2FC (37.5 nM) (miR-17 [3]): 2.70
- EC50 (miR-17 [3]): 18.5 nM
- EC50 (miR-17 [4]; HK-2, human, Normal): 47.8 nM
- EC50 (miR-17 [4]; WT9-7, human, PKD): 17.3 nM
- EC50 (miR-17 [5]; D52B5, mouse, PKD): 92.8 nM
